Source: paper PMC7686313, “Phase 1 study of mTORC1/2 inhibitor sapanisertib (TAK-228) in advanced solid tumours, with an expansion phase in renal, endometrial or bladder cancer” (British Journal of Cancer, 2020)

Assay: Safety (adverse events, NCI CTCAE v4.0), expansion phase
Conditions: expansion QW 30 mg
Excerpt: Based on data collected during dose-escalation, the expansion phase evaluated the safety and efficacy of QD and QW sapanisertib in patients with RCC, endometrial or bladder cancer. Patients could continue receiving sapanisertib for ≤1 year (or beyond, if the investigator and sponsor agreed) in the absence of disease progression or unacceptable toxicity.
Patients who received ≥1 dose of sapanisertib were included in the safety population. The response-evaluable population included patients who received ≥1 dose of sapanisertib, had measurable disease at baseline, and had ≥1 postbaseline assessment. […] Adverse events (AEs) were assessed using the National Cancer Institute Common Terminology Criteria for Adverse Events, v4.0. Patients were provided with a home blood-glucose meter to monitor their fasting predose blood-glucose measurements to assess hyperglycaemia as an on-target AE and PD marker.

CC(C)n1nc(-c2ccc3oc(N)nc3c2)c2c(N)ncnc21 [Sapanisertib]
1 (6) n (%): Anaemia, grade ≥3 AE of any cause | Asthenia, treatment-related AE | Blood creatinine increased, treatment-related AE | Constipation, grade ≥3 AE of any cause | Dry mouth, treatment-related AE | Hypercholesterolemia, treatment-related AE | Hypokalaemia, grade ≥3 AE of any cause | Hyponatremia, grade ≥3 AE of any cause | Hypophosphatemia, treatment-related grade ≥3 AE | Nausea, treatment-related grade ≥3 AE | Oedema peripheral, all-grade AE of any cause | Oropharyngeal pain, all-grade AE of any cause | Pruritus, all-grade AE of any cause | Pruritus, treatment-related AE | Pyrexia, all-grade AE of any cause | Sepsis, grade ≥3 AE of any cause | Thrombocytopenia, grade ≥3 AE of any cause | Thrombocytopenia, treatment-related grade ≥3 AE | Transitional cell carcinoma, grade ≥3 AE of any cause | Urinary tract infection, all-grade AE of any cause | Vomiting, grade ≥3 AE of any cause
4 (24) n (%): Blood creatinine increased, all-grade AE of any cause | Dehydration, all-grade AE of any cause | Depression, all-grade AE of any cause | Dysgeusia, all-grade AE of any cause | Pruritus generalised, all-grade AE of any cause
9 (53) n (%): Any grade ≥3 AE | Stomatitis, all-grade AE of any cause
13 (76) n (%): Nausea, all-grade AE of any cause
8 (47) n (%): Any AE resulting in dose modification/interruption | Constipation, all-grade AE of any cause | Diarrhoea, all-grade AE of any cause | Stomatitis (includes oropharyngeal pain and mucosal inflammation), treatment-related AE
2 (12) n (%): Anaemia, all-grade AE of any cause | Anaemia, treatment-related AE | Arthralgia, all-grade AE of any cause | Dehydration, treatment-related AE | Fatigue, grade ≥3 AE of any cause | Fatigue, treatment-related grade ≥3 AE | Headache, all-grade AE of any cause | Hyperglycaemia, grade ≥3 AE of any cause | Hyperglycaemia, treatment-related grade ≥3 AE | Hypophosphatemia, grade ≥3 AE of any cause | Hypophosphatemia, treatment-related AE | Nausea, grade ≥3 AE of any cause | On-study deaths | Pain in extremity, grade ≥3 AE of any cause | Pruritus generalised, treatment-related AE | Rash maculo-papular, treatment-related AE | Weight decreased, all-grade AE of any cause
0 (0) n (%): Abdominal pain, grade ≥3 AE of any cause | Acute kidney injury, grade ≥3 AE of any cause | Acute kidney injury, treatment-related AE | Asthenia, grade ≥3 AE of any cause | Asthenia, treatment-related grade ≥3 AE | Dehydration, grade ≥3 AE of any cause | Dehydration, treatment-related grade ≥3 AE | Diarrhoea, grade ≥3 AE of any cause | Diarrhoea, treatment-related grade ≥3 AE | Dizziness, all-grade AE of any cause | Dyspnoea, grade ≥3 AE of any cause | Haematuria, grade ≥3 AE of any cause | Headache, treatment-related AE | Hyperkalaemia, grade ≥3 AE of any cause | Hypertension, grade ≥3 AE of any cause | Lymphopenia, grade ≥3 AE of any cause | Lymphopenia, treatment-related grade ≥3 AE | Musculoskeletal chest pain, grade ≥3 AE of any cause | Pneumonia, grade ≥3 AE of any cause | Pruritus generalised, treatment-related grade ≥3 AE | Rash maculo-papular, grade ≥3 AE of any cause | Rash maculo-papular, treatment-related grade ≥3 AE | Rash, treatment-related AE | Rash, treatment-related grade ≥3 AE | Stomatitis, grade ≥3 AE of any cause | Stomatitis, treatment-related grade ≥3 AE | Weight decreased, treatment-related AE
11 (65) n (%): Fatigue, all-grade AE of any cause | Fatigue, treatment-related AE | Nausea, treatment-related AE
7 (41) n (%): Decreased appetite, all-grade AE of any cause
17 (100) n (%): Any AE | Any treatment-related AE
3 (18) n (%): Any AE resulting in treatment discontinuation | Any treatment-related SAE | Dry mouth, all-grade AE of any cause | Dysgeusia, treatment-related AE | Dyspepsia, treatment-related AE | Rash maculo-papular, all-grade AE of any cause
10 (59) n (%): Vomiting, all-grade AE of any cause | Vomiting, treatment-related AE
12 (71) n (%): Hyperglycaemia, all-grade AE of any cause | Hyperglycaemia, treatment-related AE
5 (29) n (%): Cough, all-grade AE of any cause | Diarrhoea, treatment-related AE
6 (35) n (%): Abdominal pain, all-grade AE of any cause | Any SAE | Any treatment-related grade ≥3 AE | Decreased appetite, treatment-related AE
